Results: patent US20230096028A1, “BICYCLIC HETEROCYCLYL COMPOUNDS AND USES THEREOF” (Revolution Medicines, Inc., priority 2019, published 2023)

Legend:
[1] = system: PC-9 cells (EGFR Ex19Del); test: Potency Assay: pERK (SOS1 pERK IC50 Assay, AlphaLISA SureFire Ultra p-ERK1/2); assay type: cell-based; details: Homo sapiens; PC-9 cells (EGFR Ex19Del), 1 hour incubation, AlphaLISA p-ERK1/2; read-out: SOS1 pERK IC50
Method in brief: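 PC-9 (EGFR Ex19Del) cells plated overnight, then treated 1 h at 37° C. with 10-point 3-fold dilutions (top 10 μM final) in duplicate. Lysate pERK1/2 measured by AlphaLISA SureFire Ultra; IC50 from 4-parameter sigmoidal fit.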

[2] = molecular target: T1, SOS1 catalytic domain (residues 564-1049) (Homo sapiens, UniProt Q07889); test: Potency Assay: binding affinity to SOS1 using Surface Plasmon Resonance (SPR); set-up: SOS1 catalytic domain (residues 564-1049) immobilized on a sensor chip; details: immobilized SOS1 catalytic domain (residues 564-1049), read-out: SOS1 SPR Equilibrium Kd
T1 sequence (Q07889 564-1049): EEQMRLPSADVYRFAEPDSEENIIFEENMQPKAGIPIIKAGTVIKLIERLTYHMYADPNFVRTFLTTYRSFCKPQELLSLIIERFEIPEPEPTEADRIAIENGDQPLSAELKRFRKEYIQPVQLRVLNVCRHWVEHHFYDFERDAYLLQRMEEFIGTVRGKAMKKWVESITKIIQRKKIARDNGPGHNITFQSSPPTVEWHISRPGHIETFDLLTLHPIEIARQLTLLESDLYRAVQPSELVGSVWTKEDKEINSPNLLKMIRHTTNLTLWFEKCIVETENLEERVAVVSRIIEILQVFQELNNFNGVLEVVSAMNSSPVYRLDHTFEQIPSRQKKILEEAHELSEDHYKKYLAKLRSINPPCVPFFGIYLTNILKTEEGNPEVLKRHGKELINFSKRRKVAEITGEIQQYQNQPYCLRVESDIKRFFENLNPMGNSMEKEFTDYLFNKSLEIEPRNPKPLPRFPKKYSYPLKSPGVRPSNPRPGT
Method in brief: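 Avi-tagged SOS1 catalytic domain captured on streptavidin chip (~6000 RU) in 0.01 M HEPES, 0.15 M NaCl, 0.05% P20. Compound dilution series flowed at 50 μL/min for association, then buffer for dissociation, with double reference subtraction. Kd derived from end-of-association binding response plotted against concentration.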

[3] = molecular target: T1, SOS1 catalytic domain (residues 564-1049); test: Mode of Action Assay: inhibition of SOS1 nucleotide exchange activity (SOS1 TR-FRET IC50 Assay)

SMILES	IC50 [1] [nM]	Kd [2] [nM]	IC50 [3] [nM]
COC1(C(=O)N2Cc3nc(Cl)nc(N[C@H](C)c4cccc(C(F)(F)F)c4)c3C2)CCOCC1 [Example 227]	< 1000	< 400	< 1000
COc1cc(C(=O)N2CCc3nc(Cl)nc(N[C@H](C)c4cc(N)cc(C(F)(F)F)c4)c3C2)nc(OC)n1 [Example 229]	> 1000	> 400	> 1000
COc1nccnc1C(=O)N1CCc2nc(Cl)nc(N[C@H](C)c3cc(N)cc(C(F)(F)F)c3)c2C1 [Example 231]	> 1000	> 400	> 1000
COc1cccnc1C(=O)N1CCc2nc(Cl)nc(N[C@H](C)c3cc(N)cc(C(F)(F)F)c3)c2C1 [Example 232]	> 1000	> 400	> 1000
C[C@@H](Nc1nc(Cl)nc2c1CN(C(=O)c1cc(N3CCOCC3)ccn1)CC2)c1cc(N)cc(C(F)(F)F)c1 [Example 238]	> 1000	> 400	> 1000
COC1(C(=O)N2Cc3nc(C)nc(N[C@H](C)c4cccc(C(F)(F)CO)c4)c3C2)CCOCC1 [Example 239]	> 1000	< 400	< 1000
C[C@@H](Nc1nc(Cl)nc2c1CN(C(=O)C1(C)CCOCC1)C2)c1cccc(C(F)(F)CO)c1 [Example 240]	< 1000	< 400	< 1000
COC1(C(=O)N2Cc3nc(Cl)nc(N[C@H](C)c4cccc(C(F)(F)CO)c4)c3C2)COC1 [Example 241]	< 1000	< 400	< 1000
C[C@@H](Nc1nc(Cl)nc2c1CN(C(=O)c1ccc(-n3ccnc3)cn1)CC2)c1cc(N)cc(C(F)(F)F)c1 [Example 250]	> 1000	> 400	> 1000
C[C@@H](Nc1nc(Cl)nc2c1CN(C(=O)c1ccc(N3CCOCC3)cn1)CC2)c1cc(N)cc(C(F)(F)F)c1 [Example 254]	> 1000	> 400	> 1000
C[C@@H](Nc1nc(Cl)nc2c1CN(C(=O)[C@@H]1COCCN1)C2)c1cccc(C(F)(F)F)c1 [Example 275]	> 1000	> 400	< 1000
C[C@@H](Nc1nc(Cl)nc2c1CN(C(=O)C1COCCN1)C2)c1cccc(C(F)(F)F)c1 (stereo partly drawn) [Example 276]	> 1000	> 400	< 1000
C[C@@H](Nc1nc(Cl)nc2c1CN(C(=O)[C@@H]1CNCCO1)C2)c1cccc(C(F)(F)F)c1 [Example 278]	< 1000	< 400	< 1000
C[C@@H](Nc1nc(Cl)nc2c1CN(C(=O)C1(O)COC1)C2)c1cccc(C(F)(F)F)c1 [Example 279]	< 1000	> 400	< 1000
C[C@@H](Nc1nc(Cl)nc2c1CN(C(=O)C1(C#N)CCN(C)CC1)C2)c1cccc(C(F)(F)F)c1 [Example 280]	< 1000	< 400	< 1000
C[C@@H](Nc1nc(Cl)nc2c1CN(C(=O)[C@H]1CNCCO1)C2)c1cccc(C(F)(F)F)c1 [Example 281]	< 1000	< 400	< 1000
C[C@@H](Nc1nc(Cl)nc2c1CN(C(=O)C1(F)CNC1)C2)c1cccc(C(F)F)c1F [Example 282]	< 1000	< 400	< 1000
C[C@@H](Nc1nc(Cl)nc2c1CN(C(=O)CN1CCN(C)CC1)C2)c1cccc(C(F)F)c1F [Example 283]	< 1000	< 400	< 1000
C[C@@H](Nc1nc(Cl)nc2c1CN(C(=O)C1(F)CCNCC1)C2)c1cccc(C(F)F)c1F [Example 284]	< 1000	< 400	< 1000
C[C@@H](Nc1nc(Cl)nc2c1CN(C(=O)C1(N)COC1)C2)c1cccc(C(F)F)c1F [Example 285]	< 1000	< 400	< 1000
C[C@@H](Nc1nc(Cl)nc2c1CN(C(=O)C1CCN1)C2)c1cccc(C(F)F)c1F (stereo partly drawn) [Example 286]	< 1000	< 400	< 1000
C[C@@H](Nc1nc(Cl)nc2c1CN(C(=O)C1(N)CCOCC1)C2)c1cccc(C(F)F)c1F [Example 287]	< 1000	< 400	< 1000

Other lines, results leading:

IC50 [1] [nM]	Kd [2] [nM]	IC50 [3] [nM]	SMILES
> 1000	< 400	< 1000	C[C@@H](Nc1nc(Cl)nc2c1CN(C(=O)c1ccnnc1)CC2)c1cc(N)cc(C(F)(F)F)c1 [Example 228]
> 1000	> 400	> 1000	C[C@@H](Nc1nc(Cl)nc2c1CN(C(=O)c1ccncn1)CC2)c1cc(N)cc(C(F)(F)F)c1 [Example 233]
> 1000	> 400	> 1000	COc1nccc(C(=O)N2CCc3nc(Cl)nc(N[C@H](C)c4cc(N)cc(C(F)(F)F)c4)c3C2)n1 [Example 234]
> 1000	> 400	< 1000	C[C@@H](Nc1nc(Cl)nc2c1CN(C(=O)c1cccnn1)CC2)c1cc(N)cc(C(F)(F)F)c1 [Example 235]
> 1000	> 400	> 1000	C[C@@H](Nc1nc(Cl)nc2c1CN(C(=O)c1ncccn1)CC2)c1cc(N)cc(C(F)(F)F)c1 [Example 236]
> 1000	> 400	> 1000	C[C@@H](Nc1nc(Cl)nc2c1CN(C(=O)c1cnccn1)CC2)c1cc(N)cc(C(F)(F)F)c1 [Example 246]
> 1000	> 400	> 1000	C[C@@H](Nc1nc(Cl)nc2c1CN(C(=O)c1ccccn1)CC2)c1cc(N)cc(C(F)(F)F)c1 [Example 247]
> 1000	> 400	> 1000	C[C@@H](Nc1nc(Cl)nc2c1CN(C(=O)c1nccnn1)CC2)c1cc(N)cc(C(F)(F)F)c1 [Example 248]
< 1000	< 400	< 1000	C[C@@H](Nc1nc(Cl)nc2c1CN(C(=O)C1(C#N)CCOCC1)C2)c1cc(N)cc(C(F)(F)F)c1 [Example 255]
< 1000	< 400	< 1000	C[C@@H](Nc1nc(Cl)nc2c1CN(C(=O)C1(F)CCOCC1)C2)c1cc(N)cc(C(F)(F)F)c1 [Example 256]
> 1000	< 400	< 1000	C[C@@H](Nc1nc(Cl)nc2c1CN(C(=O)CC1CCN(C)C1)C2)c1cc(N)cc(C(F)(F)F)c1 (stereo partly drawn) [Example 257]
< 1000	< 400	< 1000	COC(C(=O)N1Cc2nc(Cl)nc(N[C@H](C)c3cc(N)cc(C(F)(F)F)c3)c2C1)C1CCOC1 (stereo partly drawn) [Example 259]
< 1000	< 400	< 1000	C[C@@H](Nc1nc(Cl)nc2c1CN(C(=O)[C@H]1C[C@@H](O)C1)C2)c1cc(N)cc(C(F)(F)F)c1 [Example 260]
< 1000	< 400	< 1000	C[C@@H](Nc1nc(Cl)nc2c1CN(C(=O)C1(C)COC1)C2)c1cc(N)cc(C(F)(F)F)c1 [Example 261]
< 1000	< 400	< 1000	C[C@@H](Nc1nc(Cl)nc2c1CN(C(=O)C1(C)CCN(C)CC1)C2)c1cc(N)cc(C(F)(F)F)c1 [Example 262]
< 1000	< 400	< 1000	C[C@@H](Nc1nc(Cl)nc2c1CN(C(=O)C1(F)CNC1)C2)c1cc(N)cc(C(F)(F)F)c1 [Example 263]
> 1000	< 400	< 1000	C[C@@H](Nc1nc(Cl)nc2c1CN(C(=O)[C@@H]1CNC[C@@H]1C)C2)c1cc(N)cc(C(F)(F)F)c1 [Example 264]
< 1000	< 400	< 1000	C[C@@H](Nc1nc(Cl)nc2c1CN(C(=O)C1(C)CN(C)C1)C2)c1cc(N)cc(C(F)(F)F)c1 [Example 265]
> 1000	< 400	< 1000	C[C@@H](Nc1nc(Cl)nc2c1CN(C(=O)C1C3CNCC31)C2)c1cc(N)cc(C(F)(F)F)c1 (stereo partly drawn) [Example 266]
> 1000	< 400	< 1000	C[C@@H](Nc1nc(Cl)nc2c1CN(C(=O)C1CCNCC1)C2)c1cc(N)cc(C(F)(F)F)c1 [Example 270]
< 1000	< 400	< 1000	C[C@@H](Nc1nc(Cl)nc2c1CN(C(=O)C1(F)CCNCC1)C2)c1cc(N)cc(C(F)(F)F)c1 [Example 272]
< 1000	< 400	< 1000	C[C@@H](Nc1nc(Cl)nc2c1CN(C(=O)C(C)(C)C)C2)c1cc(N)cc(C(F)(F)F)c1 [Example 274]
